Reference: US9284319B2, “Heterocyclyl aminoimidazopyridazines” (BAYER INTELLECTUAL PROPERTY GMBH, priority 2011, dated 2016)
pIC50: −log10 of the molar value.

Key:
human full-length MKNK1 [1] = molecular target: T1, human full-length MKNK1 (Homo sapiens (Human), UniProt Q9BUB5, T344D); test: MKNK1 kinase high ATP assay (TR-FRET); assay type: biochemical; conditions: ATP 2 mM final; 15 min preincubation with enzyme
Protocol: MKNK1 Kinase High ATP Assay
MKNK1-inhibitory activity at high ATP of compounds of the present invention after their preincubation with MKNK1 was quantified employing the TR-FRET-based MKNK1 high ATP assay as described in the following paragraphs.
As substrate for the kinase reaction the biotinylated peptide biotin-Ahx-[…] (C-terminus in amide form) was used, which can be purchased e.g. from the company Biosyntan (Berlin-Buch, Germany).
(§1) For the assay 50 nL of a 100 fold concentrated solution of the test compound in DMSO was pipetted into a black low volume 384 well microtiter plate (Greiner Bio-One, Frickenhausen, Germany), 2 μL of a solution of MKNK1 in aqueous assay buffer [50 mM HEPES pH 7.5, 5 mM magnesium chloride, 1.0 mM dithiothreitol, 0.005% (v/v) Nonidet-P40 (Sigma)] was added and the mixture was incubated for 15 min at 22° C. to allow pre-binding of the test compounds to the enzyme before the start of the kinase reaction. Then the kinase reaction was started by the addition of 3 μL of a solution of adenosine-tri-phosphate (ATP, 3.3 mM=>final conc. in the 5 μL assay volume is 2 mM) and substrate (0.1 μM=>final conc. in the 5 μL assay volume is 0.06 μM) in assay buffer and the resulting mixture was incubated for a reaction time of 30 min at 22° C. The concentration of MKNK1 was adjusted depending of the activity of the enzyme lot and was chosen appropriate to have the assay in the linear range, typical concentrations were in the range of 0.003 μg/mL. The reaction was stopped by the addition of 5 μL of a solution of TR-FRET detection reagents (5 nM streptavidine-XL665 [Cisbio Bioassays, Codolet, France] and 1 nM anti-ribosomal protein S6 (pSer236)-antibody from Invitrogen [#44921G] and 1 nM LANCE EU-W1024 labeled ProteinG [Perkin-Elmer, product no. AD0071]) in an aqueous EDTA-solution (100 mM EDTA, 0.1% (w/v) bovine serum albumin in 50 mM HEPES pH 7.5).
(§2) The resulting mixture was incubated for 1 h at 22° C. to allow the formation of complex between the phosphorylated biotinylated peptide and the detection reagents. Subsequently the amount of phosphorylated substrate was evaluated by measurement of the resonance energy transfer from the Eu-chelate to the streptavidine-XL. Therefore, the fluorescence emissions at 620 nm and 665 nm after excitation at 350 nm were measured in a TR-FRET reader, e.g. a Rubystar (BMG Labtechnologies, Offenburg, Germany) or a Viewlux (Perkin-Elmer). The ratio of the emissions at 665 nm and at 622 nm was taken as the measure for the amount of phosphorylated substrate.

human full-length MKNK1 [2] = molecular target: T1, human full-length MKNK1; test: MKNK1 kinase assay (TR-FRET); assay type: biochemical; conditions: ATP 10 μM final; 15 min preincubation with enzyme
Protocol: MKNK1-inhibitory activity of compounds of the present invention was quantified employing the MKNK1 TR-FRET assay as described in the following paragraphs.
As substrate for the kinase reaction the biotinylated peptide biotin-Ahx-[…] (C-terminus in amide form) was used which can be purchased e.g. form the company Biosyntan (Berlin-Buch, Germany).
as §1, with “16.7 μM=>final” for “3.3 mM=>final”, “10 μM)” for “2 mM)”, “45” for “30”, “0.05” for “0.003”
as §2

T1 sequence (Q9BUB5 other isoform, or with tags, fused parts or gaps T344D): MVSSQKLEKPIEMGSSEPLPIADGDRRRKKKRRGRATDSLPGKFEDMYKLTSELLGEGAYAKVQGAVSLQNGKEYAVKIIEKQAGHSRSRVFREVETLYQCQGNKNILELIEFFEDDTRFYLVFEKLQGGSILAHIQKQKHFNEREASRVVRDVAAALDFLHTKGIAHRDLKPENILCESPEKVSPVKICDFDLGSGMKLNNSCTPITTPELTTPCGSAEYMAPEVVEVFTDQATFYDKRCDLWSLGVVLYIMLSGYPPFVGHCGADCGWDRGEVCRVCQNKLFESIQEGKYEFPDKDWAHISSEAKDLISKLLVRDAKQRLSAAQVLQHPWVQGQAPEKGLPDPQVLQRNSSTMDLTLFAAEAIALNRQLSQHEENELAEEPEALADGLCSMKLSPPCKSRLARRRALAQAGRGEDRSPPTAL

| Compound | pIC50 (human full-length MKNK1 [1]) | pIC50 (human full-length MKNK1 [2]) |
| --- | --- | --- |
| OC1CCN(c2ccc3ncc(-c4cc5ccccc5o4)n3n2)C1 (stereo not drawn) [Example 3, 1-[3-(1-Benzofuran-2-yl)imidazo[1,2-b]pyridazin-6-yl]pyrrolidin-3-ol] | 8.22 | 7.77 |
| O[C@@H]1CCCN(c2ccc3ncc(-c4cc5ccccc5o4)n3n2)C1 [Example 4, (3R)-1-[3-(1-Benzofuran-2-yl)imidazo[1,2-b]pyridazin-6-yl]piperidin-3-ol] | 7.82 | 7.36 |
| OC[C@H]1CCN(c2ccc3ncc(-c4cc5ccccc5o4)n3n2)C1 [Example 10, {(3S)-1-[3-(1-Benzofuran-2-yl)imidazo[1,2-b]pyridazin-6-yl]pyrrolidin-3-yl}methanol] | – | 7.70 |
| OC[C@@H]1CCN(c2ccc3ncc(-c4cc5ccccc5o4)n3n2)C1 [Example 7, {(3R)-1-[3-(1-Benzofuran-2-yl)imidazo[1,2-b]pyridazin-6-yl]pyrrolidin-3-yl}methanol] | 8.40 | 7.85 |
| O[C@@H]1CCN(c2ccc3ncc(-c4cc5ccccc5o4)n3n2)C1 [Example 9, (3R)-1-[3-(1-Benzofuran-2-yl)imidazo[1,2-b]pyridazin-6-yl]pyrrolidin-3-ol] | – | 7.82 |
| OC[C@H]1CCCN1c1ccc2ncc(-c3cc4ccccc4o3)n2n1 [Example 2, {(2R)-1-[3-(1-Benzofuran-2-yl)imidazo-[1,2-b]-pyridazin-6-yl]pyrrolidin-2-yl}-methanol] | 7.66 | 7.38 |
| O[C@H]1CCN(c2ccc3ncc(-c4cc5ccccc5o4)n3n2)C1 [Example 8, (3S)-1-[3-(1-Benzofuran-2-yl)imidazo[1,2-b]pyridazin-6-yl]pyrrolidin-3-ol] | 7.82 | 7.72 |

The remaining compounds from weak to strong by pIC50 (human full-length MKNK1 [2]), led by results:

| pIC50 (human full-length MKNK1 [1]) | pIC50 (human full-length MKNK1 [2]) | Compound |
| --- | --- | --- |
| 7.89 | 7.43 | OCC1CCCN(c2ccc3ncc(-c4cc5ccccc5o4)n3n2)C1 (stereo not drawn) [Example 5, {1-[3-(1-Benzofuran-2-yl)imidazo[1,2-b]pyridazin-6-yl]piperidin-3-yl}methanol] |
| 7.92 | 7.48 | OC1CN(c2ccc3ncc(-c4cc5ccccc5o4)n3n2)C1 [Example 6, 1-[3-(1-Benzofuran-2-yl)imidazo[1,2-b]pyridazin-6-yl]azetidin-3-ol] |
| 8.15 | 7.72 | OC[C@@H]1CCCN1c1ccc2ncc(-c3cc4ccccc4o3)n2n1 [Example 1, {(2S)-1-[3-(1-Benzofuran-2-yl)imidazo[1,2-b]pyridazin-6-yl]pyrrolidin-2-yl}methanol] |
